Test results taken from US20120172313A1, “TREATMENT OF PROLIFERATIVE DISEASES” (priority 2010, published 2012).
Bridges are numbered along the chain shown (N, C = ends). Where no end group is shown, it is not given here.

Legend:
[1] = tested on: Fusarium oxysporum f. sp. vasinfectum; conditions: read-out: IC50, growth of Fusarium oxysporum f. sp. vasinfectum
Protocol: Permeabilization of fungal membranes has also been reported for some plant defensins (Lay and Anderson, 2005). […] These five fungal species are all members of the ascomycete phylum and are distributed among three classes in the subphylum pezizomycotiria. These fungi are agronomically important fungal pathogens.
SP Sepharose elution fractions containing rNaD1 were loaded onto an analytical C8 RP-HPLC column and eluted using a 40 min linear gradient (0-100% buffer B). Proteins were detected by absorbance at 215 nm. […] Graph represents data from three separate experiments performed in quadruplicate. Error bars represent standard error of the mean.

[2] = Acute oral toxicity (OECD Test Guideline 423); assay type: in vivo, C57BL/6 mice
From the text: This study was based on OECD Test Guideline 423 (OECD [Organisation for Economic Co-operation and Development]. 2001. Guideline 423: Acute Oral Toxicity—Acute Toxic Class Method. Paris: OECD).
Healthy female C57BL/6 mice derived from the same litter were obtained from either the Central Animal House at La Trobe University (Bundoora Campus) or from Monash Animal Services. The animals were identified by ear punch and kept three per cage during the study. The animals will be housed and maintained in groups of three in cages as per standard animal house conditions at La Trobe University.
On the day of dosing, the test mice were weighed and fasted for 4 h prior to dose administration. Just prior to dosing, the mice were reweighed. […] The protein solution was administered by oral gavage using a round-tipped canula needle. Feed was replaced 1 h after dosing. The mice received standard rodent diet and water ad libitum.
The mice were observed hourly for 4 h after dosing on day 1 and at least twice daily thereafter until scheduled killing on day 14. Signs of gross toxicity, adverse pharmacologic effects and behavioural changes were assessed and recorded daily as was the food and water consumption. The mice were reweighed at days 7 or 8 and 14. On the last day of the study (day 14), the mice were killed by inhalation of carbon dioxide and necropsied. All the mice received a gross pathological examination. The weights of the following organs were recorded: brain, heart, liver, lungs, kidneys, gastrointestinal tract, spleen and thymus. Subsequently, the samples were fixed in 4% (v/v) paraformaldehyde until paraffin embedding, sectioning and histopathological examination by the Australian Phenomics Network, University of Melbourne node. The gastrointestinal tract was divided into the following sections: stomach, duodenum, jejunum, ileum, cecum and colon.

[3] = tested on: human red blood cells; assay: Red blood cell (RBC) lysis; conditions: for haemolytic activity: concentrations up to 100 μM
Protocol: Following ficoll-paque separation, RBCs were collected and washed with 1×PBS and pelleted at 1000×g for 10 min. RBCs were diluted 1 in 10 for treatment with increasing concentrations (0-100 μM) of defensins and incubated over-night under a humidified atmosphere of 5% CO2/95% air. […] The degree of red blood cell lysis was measured as absorbance at 412 nm.

[4] = tested on: human coronary artery smooth muscle cells (CASMC) and umbilical vein endothelial cells (HUVEC); conditions: read-out: IC50, viability of normal primary cells (MTT), 48 h
Protocol: Tumour cells were seeded in a 96-well microtitre plate (50 μL/well) at an optimum density determined in the cell optimisation assay as above. Background control wells (n=8) containing the same volume of complete culture medium were included in the assay. The microtitre plate was incubated overnight at 37° C., prior to the addition of proteins at various concentrations and the plate was incubated for a further 48 h. The cell viability 3-(4,5-dimethyl-2-thiazolyl)-2,5-diphenyl-2H-tetrazolium bromide (MTT, Sigma-Aldrich) assay was carried out as follows: the MTT solution (1 mg/mL) was added to each well (100 μL) and the plate incubated for 2-3 h at 37° C. under a humidified atmosphere containing 5% CO2/95% air. Subsequently, for adherent cell lines, the media was removed and replaced with dimethyl sulfoxide (100 μL, DMSO, Sigma-Aldrich), and placed on a shaker for 5 min to dissolve the tetrazolium salts. In the case of suspension cells, prior to the addition of DMSO the cells are spun at 1500 rpm for 5 min. Absorbance of each well was measured at 570 nm and the IC50 values (the protein concentration to inhibit 50% of cell growth) were determined using the Origin Software Program. […]

[5] = tested on: Phoma betae; conditions: 1 μg/mL; cited from earlier work
[6] = tested on: Sclerotinia sclerotiorum; conditions: 100 μg/mL; cited from earlier work
[7] = tested on: human U937 myelomonocytic cells; assay: PI uptake flow cytometry cell permeabilisation assay, U937; assay type: cell-based; conditions: for PI+ U937 cells (mean ± SEM): 10 μM, absence of serum, Example 9, cell only control 27.03±0.52
Protocol: (§1) Unless otherwise stated, cells were re-suspended at a cell concentration of 4×10^5 cells/mL in complete culture RPMI-1640 medium supplemented with 10% FBS, 100 U/mL penicillin and 100 μg/mL streptomycin, and added to either a V-bottom 96-well plate or microfuge tubes. Cells were kept at 37° C., unless otherwise stated, during protein addition (5 μL) at various concentrations or the set concentration of 10 μM. Typically, cells were mixed with the protein of interest and incubated at 37° C. for 30 min. In certain experiments, cells were also incubated at either 4° C. or 37° C. for 2-60 min prior to flow cytometry analysis. Cells were added to an equal volume of complete culture medium containing 2 μg/mL propidium iodide (PI, Annexin V-FITC Apoptosis Detection Kit, Invitrogen) and analysed immediately by flow cytometry using a FACSCanto cell sorter (Becton Dickson, Fanklin Lakes, N.J.) and Cell Quest Pro Software (Becton Dickson). Typically, 5000-10000 events per sample were collected and the resultant data were analysed using FlowJo software (Tree Star, Ashland, Oreg.). Cells were gated appropriately based on forward scatter (FSC) and side scatter (SSC), with the viable cells determined by their ability to exclude PI. For analysis purposes, all data was standardised relative to control (normal cell % ranged from approx. 0-7%).
(§2) To determine whether NaD1 kills tumour cells in a similar manner to fungus, the ability of NaD1 to permeabilise tumour cells was assessed using two different approaches. The first used a bioluminescence assay to measure the release of intracellular ATP.
(§3) The first used a bioluminescence assay to measure the release of intracellular ATP. 4×10^4 U937 (human myelomonocytic tumour cell line) were treated with increasing concentrations of PhD1A or rTPP3 (0-20-μM) and ATP release measured at intervals of 30 seconds for a total of 30 min by determining absorbance at 562 nm. The second approach used flow cytometry to determine the uptake of the fluorescent dye propidium iodide (PI) (2 μg/mL) by U937 (4×10^5/mL) following the treatment of cells with increasing concentrations of PhD1A (0 to 50 μM) or rTPP3 (0 to 40 μM) for 30 min.
(§4) The percentage of PI^+ cells was then determined by flow cytometry.
(§5) The first used a bioluminescence assay to measure the release of intracellular ATP. 4×10^4U937 were treated with 10 μM of each defensin and ATP release measured at intervals of 30 seconds for a total of 30 min by determining absorbance at 562 nm. The second approach used flow cytometry to determine the uptake of the fluorescent dye propidium iodide (PI) (2 μg/mL) by U937 (4×10^5/mL) following the treatment of cells with […] of each defensin for 30 min.

[8] = tested on: U937 human myelomonocytic cells; assay: ATP bioluminescence (ATP release) assay, U937; assay type: cell-based; conditions: read over 30 min
Protocol: ATP bioluminescence assay (Roche Diagnostics, NSW Australia) was used to quantitate the release of ATP by permeabilised tumour cells. The Luciferase reagent was dissolved as per manufacturer's instructions and incubated for 5 min at 4° C. Briefly, cells were re-suspended at a concentration of 1×10^6 cells/mL in 1×PBS/0.1% BSA and added (40 μL/well) to the Luciferase reagent (50 μL/well) to a blank microtitre plate (Nunc™) containing 10 μL of protein samples. Simultaneously, using a multichannel pipette, the mixture was added (90 μL/well) and samples were immediately read on a microtitre plate reader at 562 nm for 30 min with readings taken at 30 s intervals. The data were analysed by SoftMaxPro 4.0 software (Molecular Devices Company).
as §2, §3, §5

[9] = Lipid-coated membrane strip binding assay (Echelon lipid strips); conditions: 0.12 μM, overnight, 4° C.
Protocol: Membrane Lipid Strips™, PIP Strips™ and Sphingo Strips™ (Echelon Biosciences, Salt Lake City, Utah) were incubated with PBS/3% BSA for 1-2 h at RT to block non-specific binding. The membrane strips were then incubated with defensins (0.12 μM) diluted in PBS/1% BSA overnight at 4° C., prior to thorough washing for 60 min at RT with PBS/0.1% Tween-20. […] After each antibody incubation, the membrane strips were washed extensively for 60 min at RT with PBS/0.1% Tween-20. Chemiluminescence was detected using the enhanced chemiluminescence (ECL) western blotting reagent (GE Healthcare BioSciences, NSW Australia) and exposed to Hyperfilm (GE Healthcare BioSciences, NSW, Australia) and developed using an Xomat (All-Pro-Imaging).
Densitometry analysis was performed on images obtained from lipid strips using ImageJ (National Institute of Health, Bethesda, Md.). Briefly, circles of equivalent size were traced around areas of interest. A background circle of equal size was also placed in the area on the membrane where there is no lipid and set as the background. The areas of interest were quantified as the average pixel intensity subtracted from the background.
These strips are spotted with 100 pmole of each lipid in a biologically active form.
Further investigation of the interaction of Solanaceae class I and class II defensins with cellular lipids was carried out by solid-state lipid binding assays using Echelon™ PIP Strips. […] Defensin binding was quantitated by densitometry on the developed lipid strips.

[10] = tested on: U937 cells; assay: PI uptake permeabilisation assay in the presence of serum; assay type: cell-based, human; conditions: for activity on tumour cells in the presence of serum: up to 40% serum; for PI+ U937 cells: 10 μM defensin
Protocol: as §1, §4
To assess the ability of PhD1A or rTPP3 to permeabilise tumour cells in the presence of serum, the PI-uptake flow cytometry assay was utilised as described in Example 2 with the following modifications: 4×10^5/mL U937 cells were incubated with […] PhD1A or rTPP3 in the presence of increasing concentrations of foetal calf serum (FCS) (0 to 40%) for 60 min followed by addition of 2 μg/mL PI. The percentage of PI^+ cells was then determined by flow cytometry.

[11] = oral gavage, 20, 50 or 300 mg NaD1/kg body weight, 14 days
[12] = Example 11, 30 min at 37° C., concentration printed 'at 100' (10 μM in the same block)

## RECKTESNTFPGICITKPPCRKACISEKFTDGHCSKILRRCLCTKPC (disulfide 3-47, 14-34, 20-41, 24-43) [NaD1]
[1]
  IC50: ~1 µM
[2]; administered orally at up to 300 mg NaD1/kg body weight
  adverse effects on mice: no adverse effects
[2]; highest dose of 300 mg NaD1/kg body weight
  histopathology of organs: possible slight irritation to the stomach epithelium
[2]; [11]
  body weight: no treatment related effects on body weight
  clinical signs: no signs of gross toxicity, adverse pharmacologic effects or behavioural changes
  survival: survived to termination of the study
[2]; oral gavage, doses below 300 mg NaD1/kg body weight
  histopathology of organs: No pathologies, attributable to protein administration
[3]; 100 μM, 16 h, 37° C.
  RBC lysis (relative to water = 100% lysis): ~50%
[4]
  IC50: 7.5 to 12 µM

## Rs-AFP2: antifungal plant defensin from radish seeds (QKLCQRPSGTWSGVCGNNNACKNQCIRLEKARHGSCNYVFPAHKCICYFPC; UniProt P30230 30-80, looked up)
[5]
  growth of Phoma betae: inhibits the growth
[6]
  activity against Sclerotinia sclerotiorum: ineffective

## ARECKTESNTFPGICITKPPCRKACISEKFTDGHCSKILRRCLCTKPC (disulfide 4-48, 15-35, 21-42, 25-44) [rNaD1]
[1]
  IC50: ~1.6 µM
[3]
  haemolytic activity: no ability to lyse RBCs
[3]; listed as recombinant NaD1
  haemolytic activity: no haemolytic activity
[4]
  IC50: 7.5 to 12 µM

## rTPP3: Solanum lycopersicum (tomato) Class II defensin TPP3, recombinant (SEQ ID NO: 12) (AQQICKAPSQTFPGLCFMDSSCRKYCIKEKFTGGHCSKLQRKCLCTKPC; listed as Solanum lycopersicum)
[7]; 5 μM, 30 min, 37° C.
  PI+ U937 cells: ~35%
[7]
  PI+ U937 cells (mean ± SEM): 49.97±2.93%
[7]; 40 μM, 30 min, 37° C.
  PI+ U937 cells: ~90%
[8]
  release of ATP from U937 cells: release of ATP in a time-dependent and concentration-dependent manner
[9]
  phospholipid binding preference (PIP strips): general preference of binding to phosphoinositides
[10]; 5-40% FCS
  retention of permeabilisation activity: up to 70%
[10]
  activity on tumour cells in the presence of serum: retained the ability to permeabilise U937 cells

## NsD1: Nicotiana suaveolens class II defensin; mature domain SEQ ID NO: 22 (KDCKRESNTFPGICITKPPCRKACIREKFTDGHCSKILRRCLCTKPC; listed as Nicotiana suaveolens)
[7]; [12]
  PI+ U937 cells: ~60%
[8]
  release of ATP from U937 cells: release of ATP in a time-dependent and concentration-dependent manner
[9]
  phospholipid binding preference (PIP strips): general preference of binding to phosphoinositides

## NsD2: Nicotiana suaveolens class II defensin; mature domain SEQ ID NO: 26 (KDCKRESNTFPGICITKLPCRRACISEKFADGHCSKILRRCLCTKPC; listed as Nicotiana suaveolens)
[7]; [12]
  PI+ U937 cells: ~60%
[8]
  release of ATP from U937 cells: release of ATP in a time-dependent and concentration-dependent manner
[9]
  phospholipid binding preference (PIP strips): general preference of binding to phosphoinositides

## PhD1A: Petunia hybrida Class II defensin; mature domain SEQ ID NO: 18 (ATCKAECPTWDGICINKGPCVKCCKAQPEKFTDGHCSKVLRRCLCTKPC; listed as Petunia hybrida)
[7]; 6.25 μM, 30 min, 37° C.
  PI+ U937 cells: ~35%
[7]
  PI+ U937 cells (mean ± SEM): 57.07±2.76%
[7]; 50 μM, 30 min, 37° C.
  PI+ U937 cells: ~90%
[8]
  release of ATP from U937 cells: release of ATP in a time-dependent and concentration-dependent manner
[9]
  binding to phosphatidic acid (PA): bound strongly
  phospholipid binding preference (PIP strips): general preference of binding to phosphoinositides
[10]; 0% FCS
  PI+ U937 cells: 90%
[10]; 40% FCS
  PI+ U937 cells: 40%
[10]
  activity on tumour cells in the presence of serum: retained the ability to permeabilise U937 cells
